The target in test [1] is T1, Amine oxidase [flavin-containing] B (Homo sapiens, UniProt P27338).
T1 sequence (P27338 whole entry): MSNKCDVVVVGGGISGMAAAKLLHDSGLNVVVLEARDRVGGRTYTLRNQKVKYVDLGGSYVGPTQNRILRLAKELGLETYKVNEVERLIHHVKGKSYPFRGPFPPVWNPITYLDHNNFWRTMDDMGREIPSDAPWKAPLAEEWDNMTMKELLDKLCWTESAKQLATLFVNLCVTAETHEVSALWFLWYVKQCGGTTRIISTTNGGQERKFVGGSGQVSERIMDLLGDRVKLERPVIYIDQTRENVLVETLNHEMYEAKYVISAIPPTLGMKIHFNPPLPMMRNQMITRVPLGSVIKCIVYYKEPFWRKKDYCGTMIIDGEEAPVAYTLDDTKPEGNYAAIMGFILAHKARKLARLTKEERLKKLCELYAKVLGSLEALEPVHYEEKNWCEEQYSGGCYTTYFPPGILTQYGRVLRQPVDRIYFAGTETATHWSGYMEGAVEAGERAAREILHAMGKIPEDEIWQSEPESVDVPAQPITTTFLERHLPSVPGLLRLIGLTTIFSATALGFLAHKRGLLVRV
In words: MAO-A and MAO-B Assay. As for the experimental part: (§1) MAO assays included luminogenic MAO substrate, reaction buffers, Luciferin Detection and the reconstitution buffer with esterase. Standard MAO reaction mixtures included microsome contained MAO-A (2 ug) or MAO-B (10 ug), 160 uM substrate for MAO-A or 16 uM substrate for MAO-B, MAO-A buffer (100 mM Hepes buffer, pH 7.5, 5% glycerol) or MAO-B buffer (100 mM Hepes, pH 7.5, 5% glycerol, 10% dimethyl sulfoxide) in a final volume of 30 ul. After 20 minutes of pre-incubation of the enzyme with compounds, the reaction was initiated by adding enzyme substrate and the reaction was allowed to proceed for 60 minutes. Reconstituted Luciferin Detection Reagent (30 ul) was then added is added to simultaneously stop the MAO reaction and convert the methyl ester derivative to luciferin and produce light. The amount of light produced is directly proportional to the activity of MAO. The mixtures were further incubated for 20 minutes and activity of the enzyme was determined using Perkin-Elmer Envision Reader.

For test [2], the target named is T2, Amine oxidase [flavin-containing] A (Homo sapiens, UniProt P21397).
T2 sequence (P21397 whole entry): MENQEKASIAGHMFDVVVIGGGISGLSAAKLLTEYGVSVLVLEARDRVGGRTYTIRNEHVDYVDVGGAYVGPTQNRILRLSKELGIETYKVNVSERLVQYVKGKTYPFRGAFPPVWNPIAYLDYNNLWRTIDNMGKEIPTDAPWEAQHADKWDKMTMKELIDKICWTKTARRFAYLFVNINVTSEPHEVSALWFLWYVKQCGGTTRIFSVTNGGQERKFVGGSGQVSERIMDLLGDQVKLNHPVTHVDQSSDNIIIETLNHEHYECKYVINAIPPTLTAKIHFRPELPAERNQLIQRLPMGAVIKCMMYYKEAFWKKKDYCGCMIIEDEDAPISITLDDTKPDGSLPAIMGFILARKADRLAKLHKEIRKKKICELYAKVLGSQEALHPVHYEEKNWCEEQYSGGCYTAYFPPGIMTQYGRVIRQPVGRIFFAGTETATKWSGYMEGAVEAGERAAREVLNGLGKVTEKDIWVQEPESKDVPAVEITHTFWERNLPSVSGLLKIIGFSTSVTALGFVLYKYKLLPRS
In words: MAO-A and MAO-B Assay. As for the experimental part: as §1

The target of test [3] is T3, Aldehyde dehydrogenase, mitochondrial (Homo sapiens, UniProt P05091).
T3 sequence (P05091 whole entry): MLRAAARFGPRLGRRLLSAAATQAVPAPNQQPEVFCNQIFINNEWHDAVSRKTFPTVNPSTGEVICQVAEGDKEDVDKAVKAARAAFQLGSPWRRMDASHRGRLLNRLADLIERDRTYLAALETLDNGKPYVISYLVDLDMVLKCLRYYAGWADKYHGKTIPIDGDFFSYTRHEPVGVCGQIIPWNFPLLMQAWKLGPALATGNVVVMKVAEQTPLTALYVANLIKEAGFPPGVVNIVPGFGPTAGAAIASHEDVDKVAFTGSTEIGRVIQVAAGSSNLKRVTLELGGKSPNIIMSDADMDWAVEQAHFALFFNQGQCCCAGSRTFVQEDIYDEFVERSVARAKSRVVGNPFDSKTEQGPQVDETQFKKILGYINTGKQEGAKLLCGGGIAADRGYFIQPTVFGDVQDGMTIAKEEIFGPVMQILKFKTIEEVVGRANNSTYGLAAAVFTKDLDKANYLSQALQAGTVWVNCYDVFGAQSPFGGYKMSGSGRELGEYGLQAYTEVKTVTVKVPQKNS
As to the kind of experiment: ALDH2 Assay. As to the method: Standard ALDH2 reaction mixtures contained 150 uM formaldehyde, 2.5 mM NAD+, 10 mM MgCl2 and 10 nM recombinant human ALDH2 in 50 mM Hepes buffer, pH 7.4, 0.01% Tween 20 in a final volume of 50 ul using 384-well plates. After 60 min of pre-incubation of compound with ALDH2 and formaldehyde, the reaction was started by adding NAD+ and the reaction mixture was allowed to proceed for 90 minutes. Activity of the enzyme was determined by monitoring NADH formation using Perkin-Elmer Envision Reader with excitation and emission wavelengths set at 340 and 460 nm, respectively.

As for `Cc1cccc(C)c1C(=O)NCc1ccc(C2CCNC(=O)C2)cc1` (stereo not drawn) [US9610299, Example 6], the IC50 (in general, the concentration needed to halve the response being measured) in test [1] was > 130 µM; in test [2] it was > 130 µM; in test [3], 1.11 µM.
